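Following 48 hours of exposure in 96-well plates, responses at five concentrations were used to interpolate endpoints linearly. GI50 marks 50% less growth.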 Active and inactive are the calls of the source. Rule as the data show it: active = GI50 up to about 1.1 µM and inactive = higher.
Legend:
Assay in all cases: growth of human tumour cells (NCI), 48 h
MDA-MB-435 = test system: MDA-MB-435
RXF 393 = test system: RXF 393
UACC-257 = test system: UACC-257
SK-OV-3 = test system: SK-OV-3
HCT-15 = test system: HCT-15
UACC-62 = test system: UACC-62
BT-549 = test system: BT-549
SNB-19 = test system: SNB-19
SW-620 = test system: SW-620
T47D = test system: T47D
MDA-MB-231 = test system: MDA-MB-231
Hs-578T = test system: Hs-578T
ACHN = test system: ACHN
NCI/ADR-RES = test system: NCI/ADR-RES
KM12 = test system: KM12
Malme-3M = test system: Malme-3M
SN12C = test system: SN12C
RPMI-8226 = test system: RPMI-8226
SF-295 = test system: SF-295
A498 = test system: A498

Compound	GI50 (MDA-MB-435)	GI50 (RXF 393)	GI50 (UACC-257)	GI50 (SK-OV-3)	GI50 (HCT-15) [µM]	GI50 (UACC-62)	GI50 (BT-549)	GI50 (SNB-19)	GI50 (SW-620)	GI50 (T47D)	GI50 (MDA-MB-231)	GI50 (Hs-578T)	GI50 (ACHN)	GI50 (NCI/ADR-RES)	GI50 (KM12)	GI50 (Malme-3M)	GI50 (SN12C)	GI50 (RPMI-8226)	GI50 (SF-295)	GI50 (A498)
COc1ccc(-c2cc(-c3ccccc3)nc(/N=C\c3ccccc3)n2)c(O)c1	3.72 µM (inactive)	> 100 µM (inactive)	> 100 µM (inactive)	7.52 µM (inactive)	5.37	> 27.7 µM (inactive)	> 31.3 µM (inactive)	> 36.5 µM (inactive)	8 µM (inactive)	5.62 µM (inactive)	> 31.3 µM (inactive)	> 100 µM (inactive)	6.47 µM (inactive)	> 86.5 µM (inactive)	5.9 µM (inactive)	> 80.4 µM (inactive)	> 29 µM (inactive)	2.14 µM (inactive)	97.7 µM (inactive)	> 100 µM (inactive)
CCc1nc(N)nc(N)c1-c1ccc(NC)c([N+](=O)[O-])c1	0.586 µM (active)	16 µM (inactive)	18 µM (inactive)	28.7 µM (inactive)	0.398	0.531 µM (active)	26.1 µM (inactive)	9.08 µM (inactive)	0.481 µM (active)	21.4 µM (inactive)	27.2 µM (inactive)	23.6 µM (inactive)	0.594 µM (active)	1.2 µM (inactive)	2.76 µM (inactive)	24.8 µM (inactive)	0.91 µM (active)	3.72 µM (inactive)	0.753 µM (active)	2.43 µM (inactive)
NC(=O)NC1NC(=O)NC1=O (stereo not given) [ALLANTOIN]	> 100 µM (inactive)	> 100 µM (inactive)	> 100 µM (inactive)	> 100 µM (inactive)	> 100	> 100 µM (inactive)	> 100 µM (inactive)	> 100 µM (inactive)	> 100 µM (inactive)	> 100 µM (inactive)	> 100 µM (inactive)	> 100 µM (inactive)	> 100 µM (inactive)	> 100 µM (inactive)	> 100 µM (inactive)	> 100 µM (inactive)	> 100 µM (inactive)	> 100 µM (inactive)	> 100 µM (inactive)	> 100 µM (inactive)
CCn1c(-c2c(Cl)cc(O)cc2Cl)cc2c(Cl)cc(O)cc21	1.67 µM (inactive)	2.33 µM (inactive)	11.7 µM (inactive)	7.36 µM (inactive)	3.48	8.49 µM (inactive)	4.5 µM (inactive)	8.47 µM (inactive)	5.69 µM (inactive)	7.62 µM (inactive)	5.9 µM (inactive)	5.07 µM (inactive)	4.66 µM (inactive)	5.13 µM (inactive)	5.07 µM (inactive)	14 µM (inactive)	13.3 µM (inactive)	5.81 µM (inactive)	4.05 µM (inactive)	13.9 µM (inactive)
COC1OC2COC1(OCc1ccccc1)C1OC(C)(C)OC21 (stereo not given)	> 100 µM (inactive)	> 100 µM (inactive)	> 100 µM (inactive)	> 100 µM (inactive)	> 100	> 100 µM (inactive)	> 100 µM (inactive)	> 100 µM (inactive)	> 100 µM (inactive)	> 100 µM (inactive)	> 100 µM (inactive)	> 100 µM (inactive)	> 100 µM (inactive)	> 100 µM (inactive)	> 100 µM (inactive)	> 100 µM (inactive)	> 100 µM (inactive)	> 100 µM (inactive)	> 100 µM (inactive)	> 100 µM (inactive)
C[C@H](NC1=CC(=O)C(N[C@@H](C)[C@H](O)c2ccccc2)=CC1=O)[C@H](O)c1ccccc1	81.5 µM (inactive)	> 100 µM (inactive)	> 100 µM (inactive)	69 µM (inactive)	68.9	87.9 µM (inactive)	52.8 µM (inactive)	> 100 µM (inactive)	> 100 µM (inactive)	53.1 µM (inactive)	76.2 µM (inactive)	37.2 µM (inactive)	96.6 µM (inactive)	92.7 µM (inactive)	59.3 µM (inactive)	67.6 µM (inactive)	> 100 µM (inactive)	> 100 µM (inactive)	70.1 µM (inactive)	> 100 µM (inactive)
COc1cc(OC)c2c(O)c(S(=O)(=O)c3ccc(C)cc3)c(=O)oc2c1	> 100 µM (inactive)	> 100 µM (inactive)	> 100 µM (inactive)	> 100 µM (inactive)	> 100	> 100 µM (inactive)	> 100 µM (inactive)	93.3 µM (inactive)	> 100 µM (inactive)	> 100 µM (inactive)	> 100 µM (inactive)	94.6 µM (inactive)	> 100 µM (inactive)	> 100 µM (inactive)	92.5 µM (inactive)	> 100 µM (inactive)	> 100 µM (inactive)	76.7 µM (inactive)	> 100 µM (inactive)	> 100 µM (inactive)
CCOC(=O)C(CCN1CCC2(CC1)C(=O)N(C)CN2c1ccccc1)C(=O)OCC	> 100 µM (inactive)	> 100 µM (inactive)	> 100 µM (inactive)	> 100 µM (inactive)	> 100	> 100 µM (inactive)	> 100 µM (inactive)	> 100 µM (inactive)	> 100 µM (inactive)	> 100 µM (inactive)	> 100 µM (inactive)	> 100 µM (inactive)	> 100 µM (inactive)	> 100 µM (inactive)	> 100 µM (inactive)	> 100 µM (inactive)	> 100 µM (inactive)	> 100 µM (inactive)	> 100 µM (inactive)	> 100 µM (inactive)

— ChEMBL document CHEMBL1201862, “PubChem BioAssay data set” (2004)
